Measured values published in patent US5001118A, “Method for preventing senescence and increasing bone mass” (priority 1986, dated 1991).

Assays:
ICR type mice [1] = experiment: General inspection of blood, daily oral administration; format: in vivo, mouse (ICR type); parameters: key: .dwnarw.: Decrease below control; →: No difference from control; .uparw.: Increase above control
Protocol: (§1) Solutions obtained by dissolving the present substance, 24R,25-(OH)2 -D3 in a prescribed concentration in triglyceride of a fatty acid of 8 to 10 carbon atoms containing 1% of ethanol were administered respectively, orally, forcedly and daily to three male-groups and three female-groups of ICR type mice 5 weeks old at dosages of 10, 100, and 1,000 μg/kg.day. The results are compared below with respect to the following items with those obtained of the male- and female-groups using only the solvent without the present substance.

ICR type mice [2] = experiment: Inspection of urine, daily oral administration; format: in vivo, mouse (ICR type); parameters: key: .dwnarw.: Decrease below control; →: No difference from control; .uparw.: Increase above control
Protocol: as §1

ICR type mice [3] = experiment: Weight of internal organs, daily oral administration; format: in vivo, mouse (ICR type); parameters: key: .dwnarw.: Decrease below control; →: No difference from control; .uparw.: Increase above control
Protocol: as §1

[4] = system: femurs of male Wister rats; experiment: Fracture test of femurs; format: in vivo, rat (Wister); settings: rat femur, 40 μg/kg orally, 24 months; 20 kg-load cell; control 11.6 ± 2.2
Protocol: Male Wister rats 4 weeks old were preliminarily kept for 2 weeks. For the subsequent 24 months, the present substance, 24R,25-(OH)2 -D3, was orally administered to the pre-bred rats daily at a dosage of 40 μg/kg.day. Then, the aged rats were sacrificed and their femurs were collected and fractured with an instrument (produced by Iio Denki Co., Ltd. and marketed under trade name of "Rheodynacorder RDR-1500(D)") using a 20 kg-load cell, at a distance of 6.5 mm from the trochanter minor under the condition of a fulcrum interval of 13 mm to determine the power required for the fracture.
As regards the manner of administration, a modified feed was prepared by uniformly dispersing a prescribed amount of the present substance, 24R,25-(OH)2 -D3, in glycine and admixing the resultant dispersing mixture with a marketed feed (produced by Nippon Clea Co., Ltd. under product code of "CE-2") in such a manner as to give a final glycine concentration of 0.5% by weight and the modified feed was consumed by the rats. The administration dosage was calculated on the basis of the actual amount of the feed consumed by the rats.

C=C1CC[C@H](O)C/C1=C/C=C1\CCC[C@]2(C)[C@@H]([C@H](C)CC[C@@H](O)C(C)(C)O)CC[C@@H]12 [24R,25-(OH)2 -D3]
Amount of hemoglobin (ICR type mice [1]; female, group IV, 10 μm/kg): →
Hematocrit value (ICR type mice [1]; female, group IV, 10 μm/kg): →
Number of red blood cells (ICR type mice [1]; female, group IV, 10 μm/kg): →
Number of white blood cells (ICR type mice [1]; female, group IV, 10 μm/kg): →
Amount of hemoglobin (ICR type mice [1]; female, group V, 100 μm/kg): →
Hematocrit value (ICR type mice [1]; female, group V, 100 μm/kg): →
Number of red blood cells (ICR type mice [1]; female, group V, 100 μm/kg): →
Number of white blood cells (ICR type mice [1]; female, group V, 100 μm/kg): →
Amount of hemoglobin (ICR type mice [1]; female, group VI, 1000 μg/kg): →
Hematocrit value (ICR type mice [1]; female, group VI, 1000 μg/kg): →
Number of red blood cells (ICR type mice [1]; female, group VI, 1000 μg/kg): →
Number of white blood cells (ICR type mice [1]; female, group VI, 1000 μm/kg): →
Amount of hemoglobin (ICR type mice [1]; male, group I, 10 μm/kg): →
Hematocrit value (ICR type mice [1]; male, group I, 10 μm/kg): →
Number of red blood cells (ICR type mice [1]; male, group I, 10 μm/kg): →
Number of white blood cells (ICR type mice [1]; male, group I, 10 μm/kg): →
Amount of hemoglobin (ICR type mice [1]; male, group II, 100 μm/kg): →
Hematocrit value (ICR type mice [1]; male, group II, 100 μm/kg): →
Number of red blood cells (ICR type mice [1]; male, group II, 100 μm/kg): →
Number of white blood cells (ICR type mice [1]; male, group II, 100 μm/kg): →
Amount of hemoglobin (ICR type mice [1]; male, group III, 1000 μg/kg): →
Hematocrit value (ICR type mice [1]; male, group III, 1000 μg/kg): →
Number of red blood cells (ICR type mice [1]; male, group III, 1000 μg/kg): →
Number of white blood cells (ICR type mice [1]; male, group III, 1000 μm/kg): →
Urine ketone body (ICR type mice [2]; female, 10 μg/kg): →
Urine occult blood (ICR type mice [2]; female, 10 μg/kg): →
Urine pH (ICR type mice [2]; female, 10 μg/kg): →
Urine protein (ICR type mice [2]; female, 10 μg/kg): →
Urine sugar (ICR type mice [2]; female, 10 μg/kg): →
Urobilinogen (ICR type mice [2]; female, 10 μg/kg): →
Urine ketone body (ICR type mice [2]; female, 100 μg/kg): →
Urine occult blood (ICR type mice [2]; female, 100 μg/kg): →
Urine pH (ICR type mice [2]; female, 100 μg/kg): →
Urine protein (ICR type mice [2]; female, 100 μg/kg): →
Urine sugar (ICR type mice [2]; female, 100 μg/kg): →
Urobilinogen (ICR type mice [2]; female, 100 μg/kg): →
Urine ketone body (ICR type mice [2]; female, 1000 μg/kg): →
Urine occult blood (ICR type mice [2]; female, 1000 μg/kg): →
Urine pH (ICR type mice [2]; female, 1000 μg/kg): →
Urine protein (ICR type mice [2]; female, 1000 μg/kg): →
Urine sugar (ICR type mice [2]; female, 1000 μg/kg): →
Urobilinogen (ICR type mice [2]; female, 1000 μg/kg): →
Urine ketone body (ICR type mice [2]; male, 10 μg/kg): →
Urine occult blood (ICR type mice [2]; male, 10 μg/kg): →
Urine pH (ICR type mice [2]; male, 10 μg/kg): →
Urine protein (ICR type mice [2]; male, 10 μg/kg): →
Urine sugar (ICR type mice [2]; male, 10 μg/kg): →
Urobilinogen (ICR type mice [2]; male, 10 μg/kg): →
Urine ketone body (ICR type mice [2]; male, 100 μg/kg): →
Urine occult blood (ICR type mice [2]; male, 100 μg/kg): →
Urine pH (ICR type mice [2]; male, 100 μg/kg): →
Urine protein (ICR type mice [2]; male, 100 μg/kg): →
Urine sugar (ICR type mice [2]; male, 100 μg/kg): →
Urobilinogen (ICR type mice [2]; male, 100 μg/kg): →
Urine ketone body (ICR type mice [2]; male, 1000 μg/kg): →
Urine occult blood (ICR type mice [2]; male, 1000 μg/kg): →
Urine pH (ICR type mice [2]; male, 1000 μg/kg): →
Urine protein (ICR type mice [2]; male, 1000 μg/kg): →
Urine sugar (ICR type mice [2]; male, 1000 μg/kg): →
Urobilinogen (ICR type mice [2]; male, 1000 μg/kg): →
Weight of adrenal gland (ICR type mice [3]; female, 10 μg/kg): →
Weight of brain (ICR type mice [3]; female, 10 μg/kg): →
Weight of heart (ICR type mice [3]; female, 10 μg/kg): →
Weight of kidney (ICR type mice [3]; female, 10 μg/kg): →
Weight of liver (ICR type mice [3]; female, 10 μg/kg): →
Weight of lung (ICR type mice [3]; female, 10 μg/kg): →
Weight of ovary (ICR type mice [3]; female, 10 μg/kg): →
Weight of pituitary gland (ICR type mice [3]; female, 10 μg/kg): →
Weight of spleen (ICR type mice [3]; female, 10 μg/kg): →
Weight of thymus gland (ICR type mice [3]; female, 10 μg/kg): →
Weight of uterus (ICR type mice [3]; female, 10 μg/kg): →
Weight of adrenal gland (ICR type mice [3]; female, 100 μg/kg): →
Weight of brain (ICR type mice [3]; female, 100 μg/kg): →
Weight of heart (ICR type mice [3]; female, 100 μg/kg): →
Weight of kidney (ICR type mice [3]; female, 100 μg/kg): →
Weight of liver (ICR type mice [3]; female, 100 μg/kg): →
Weight of lung (ICR type mice [3]; female, 100 μg/kg): →
Weight of ovary (ICR type mice [3]; female, 100 μg/kg): →
Weight of pituitary gland (ICR type mice [3]; female, 100 μg/kg): →
Weight of spleen (ICR type mice [3]; female, 100 μg/kg): →
Weight of thymus gland (ICR type mice [3]; female, 100 μg/kg): →
Weight of uterus (ICR type mice [3]; female, 100 μg/kg): →
Weight of adrenal gland (ICR type mice [3]; female, 1000 μg/kg): →
Weight of brain (ICR type mice [3]; female, 1000 μg/kg): →
Weight of heart (ICR type mice [3]; female, 1000 μg/kg): →
Weight of kidney (ICR type mice [3]; female, 1000 μg/kg): →
Weight of liver (ICR type mice [3]; female, 1000 μg/kg): →
Weight of lung (ICR type mice [3]; female, 1000 μg/kg): →
Weight of ovary (ICR type mice [3]; female, 1000 μg/kg): →
Weight of pituitary gland (ICR type mice [3]; female, 1000 μg/kg): →
Weight of spleen (ICR type mice [3]; female, 1000 μg/kg): →
Weight of thymus gland (ICR type mice [3]; female, 1000 μg/kg): →
Weight of uterus (ICR type mice [3]; female, 1000 μg/kg): →
Weight of adrenal gland (ICR type mice [3]; male, 10 μg/kg): →
Weight of brain (ICR type mice [3]; male, 10 μg/kg): →
Weight of heart (ICR type mice [3]; male, 10 μg/kg): →
Weight of kidney (ICR type mice [3]; male, 10 μg/kg): →
Weight of liver (ICR type mice [3]; male, 10 μg/kg): →
Weight of lung (ICR type mice [3]; male, 10 μg/kg): →
Weight of pituitary gland (ICR type mice [3]; male, 10 μg/kg): →
Weight of spleen (ICR type mice [3]; male, 10 μg/kg): →
Weight of testis (ICR type mice [3]; male, 10 μg/kg): →
Weight of thymus gland (ICR type mice [3]; male, 10 μg/kg): →
Weight of adrenal gland (ICR type mice [3]; male, 100 μg/kg): →
Weight of brain (ICR type mice [3]; male, 100 μg/kg): →
Weight of heart (ICR type mice [3]; male, 100 μg/kg): →
Weight of kidney (ICR type mice [3]; male, 100 μg/kg): →
Weight of liver (ICR type mice [3]; male, 100 μg/kg): →
Weight of lung (ICR type mice [3]; male, 100 μg/kg): →
Weight of pituitary gland (ICR type mice [3]; male, 100 μg/kg): →
Weight of spleen (ICR type mice [3]; male, 100 μg/kg): →
Weight of testis (ICR type mice [3]; male, 100 μg/kg): →
Weight of thymus gland (ICR type mice [3]; male, 100 μg/kg): →
Weight of adrenal gland (ICR type mice [3]; male, 1000 μg/kg): →
Weight of brain (ICR type mice [3]; male, 1000 μg/kg): →
Weight of heart (ICR type mice [3]; male, 1000 μg/kg): →
Weight of kidney (ICR type mice [3]; male, 1000 μg/kg): →
Weight of liver (ICR type mice [3]; male, 1000 μg/kg): →
Weight of lung (ICR type mice [3]; male, 1000 μg/kg): →
Weight of pituitary gland (ICR type mice [3]; male, 1000 μg/kg): →
Weight of spleen (ICR type mice [3]; male, 1000 μg/kg): →
Weight of testis (ICR type mice [3]; male, 1000 μg/kg): →
Weight of thymus gland (ICR type mice [3]; male, 1000 μg/kg): →
Power for fracture [4]: Out of scale, so large
